Patent US20220002279A1, “NOVEL IMIDAZOLE DERIVATIVE” (priority 2018, published 2022)
In brackets after ≈: the same amount, converted by molar mass. Like-named read-outs stand apart in the source and are kept apart here.

Key:
[1] = molecular target: T1, Escherichia coli LpxC enzyme (Escherichia coli, UniProt P0A725); test: Inhibitory activity on Escherichia coli LpxC enzyme (LCMS method); assay type: biochemical
T1 construct: made in house; host or cells: Escherichia coli
T1 sequence (P0A725 1-305): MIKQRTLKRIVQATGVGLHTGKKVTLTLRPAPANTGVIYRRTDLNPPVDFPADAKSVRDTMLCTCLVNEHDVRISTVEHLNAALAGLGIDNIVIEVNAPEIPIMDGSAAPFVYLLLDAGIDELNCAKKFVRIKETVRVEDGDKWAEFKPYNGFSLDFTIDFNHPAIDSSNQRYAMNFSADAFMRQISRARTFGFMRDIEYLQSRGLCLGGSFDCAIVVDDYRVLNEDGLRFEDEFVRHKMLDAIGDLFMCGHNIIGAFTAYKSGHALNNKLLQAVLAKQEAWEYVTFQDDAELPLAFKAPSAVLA
Description: Test Example 3 Evaluation of the Inhibitory Activity on Escherichia coli LpxC Enzyme (LCMS Method)
To assay the activity of Escherichia coli LpxC enzyme, LpxC was reacted with its substrate, UDP-3-O-(R-3-hydroxymyristoyl)-N-acetylglucosamine, and the amount of the reaction product was quantified by liquid chromatography tandem mass spectrometry.
Specifically, to 3.1 nmol/L Escherichia coli LpxC enzyme (as acquired by preparing chromosomal DNA from Escherichia coli, obtaining the Escherichia coli LpxC genes by PCR (polymerase chain reaction) using LpxC specific primer, and incorporating the genes into a vector, followed by expression using Escherichia coli), 20 μmol/L UDP-3-O-(R-3-hydroxymyristoyl)-N-acetylglucosamine (Alberta) was added, and the mixture was incubated at room temperature for 120 minutes. This reaction was performed in a 40 mmol/L-2-morpholinoethanesulfonic acid buffer solution (pH 6.5) containing 0.02% Brij 35, 25 nmol/L-zinc chloride, and 80 μmol/L-dithiothreitol. The reaction was terminated by the addition of acetonitrile containing 25 μmol/L-UDP-N-acetylglucosamine as an internal standard to the reaction mixture. Centrifugation was performed and the amount of the substrate and the reaction product in the supernatant was detected by liquid chromatography tandem mass spectrometry. An inhibition curve was obtained by performing the aforementioned reaction in the presence of various concentrations of test compounds. From this inhibition curve, the concentration of test compound at which the amount of the reaction product was suppressed by 50% (IC50 value) was determined, which was used as an index for the inhibitory activity on Escherichia coli LpxC enzyme.

[2] = molecular target: T2, Pseudomonas aeruginosa LpxC enzyme (Pseudomonas aeruginosa, UniProt P47205); test: Inhibitory activity on Pseudomonas aeruginosa LpxC enzyme (fluorescamine method); assay type: biochemical; details: fluorescamine detection; 3.6 nmol/L enzyme, 20 μmol/L substrate, pH 8.0, 60 min
T2 construct: made in house; host or cells: Escherichia coli
T2 sequence (P47205 1-303): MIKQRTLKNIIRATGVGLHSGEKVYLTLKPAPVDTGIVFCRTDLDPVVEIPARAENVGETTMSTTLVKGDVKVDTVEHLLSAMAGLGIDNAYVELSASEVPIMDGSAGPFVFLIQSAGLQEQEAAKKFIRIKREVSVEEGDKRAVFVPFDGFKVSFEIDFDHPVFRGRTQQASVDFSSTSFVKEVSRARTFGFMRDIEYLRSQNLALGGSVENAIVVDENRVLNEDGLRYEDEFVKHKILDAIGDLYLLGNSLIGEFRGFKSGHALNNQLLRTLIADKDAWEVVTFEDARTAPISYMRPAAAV
Description: Test Example 1 Evaluation of the Inhibitory Activity on Pseudomonas aeruginosa LpxC Enzyme (Fluoresamine Method)
To assay the activity of Pseudomonas aeruginosa LpxC enzyme, LpxC was reacted with its substrate, UDP-3-O-(R-3-hydroxydecanoyl)-N-acetylglucosamine, and the amount of the reaction product was quantified by the amino groups present in the product.
Specifically, to 3.6 nmol/L Pseudomonas aeruginosa LpxC enzyme (as acquired by preparing chromosomal DNA from Pseudomonas aeruginosa, obtaining the Pseudomonas aeruginosa LpxC genes by PCR (polymerase chain reaction) using LpxC specific primer, and incorporating the genes into a vector, followed by expression using Escherichia coli), 20 μmol/L UDP-3-O-(R-3-hydroxydecanoyl)-N-acetylglucosamine (Carbosynth) was added, and the mixture was incubated at room temperature for 60 minutes. This reaction was performed in a 40 mmol/L-HEPES buffer solution (pH 8.0) containing 0.02% Brij 35 and 25 nmol/L-zinc chloride. The reaction was terminated by the addition of 1.0 mg/mL-fluorescamine dissolved in a solvent obtained by mixing an equal amount of acetonitrile and dimethylformamide with the reaction mixture, and then, a 0.2 mol/L-sodium phosphate buffer solution (pH 8.0) was added thereto, and the amount of the reaction product was detected at an excitation wavelength/fluorescence wavelength=390 nm/495 nm. An inhibition curve was obtained by performing the aforementioned reaction in the presence of various concentrations of test compounds. From this inhibition curve, the concentration of test compound at which the amount of the reaction product was suppressed by 50% (IC50 value) was determined, which was used as an index for the inhibitory activity on Pseudomonas aeruginosa LpxC enzyme.

[3] = tested on: Pseudomonas aeruginosa strain ATCC27853; test: Antimicrobial activity, MIC by broth microdilution; assay type: cell-based; details: ATCC27853, 18 h, cation-adjusted Mueller-Hinton broth, about 5×10^5 CFU/mL, 35° C., about 18 hours, read-out: MIC Pseudomonas aeruginosa ATCC27853
Outline: (§1)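 CLSI-based broth microdilution in cation-adjusted Mueller-Hinton broth, inoculum about 5×10^5 CFU/mL from overnight heart infusion agar culture. Incubation 35° C. about 18 h; MIC is the lowest concentration with no visible growth.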

[4] = tested on: Klebsiella pneumoniae strain ATCC13883; test: Antimicrobial activity, MIC by broth microdilution; assay type: cell-based; details: ATCC13883, cation-adjusted Mueller-Hinton broth, about 5×10^5 CFU/mL, 35° C., about 18 hours, read-out: MIC Klebsiella pneumoniae ATCC13883
Outline: as §1

[5] = tested on: Escherichia coli strain ATCC25922; test: Antimicrobial activity, MIC by broth microdilution; assay type: cell-based; details: ATCC25922, 18 h, cation-adjusted Mueller-Hinton broth, about 5×10^5 CFU/mL, 35° C., about 18 hours, read-out: MIC Escherichia coli ATCC25922
Outline: as §1

[6] = LC-MS/MS detection, 3.1 nmol/L enzyme, 20 μmol/L substrate, pH 6.5, 120 min, read-out: IC50 (inhibitory activity on Escherichia coli LpxC enzyme, LCMS method)

Row | SMILES | IC50 [1, 6] [nM] | IC50 [2] [nM] | MIC [3] [µg/mL] | MIC [4] [µg/mL] | MIC [5] [µg/mL] | IC50 [1] [nM]
1 | C[C@H](O)c1nccn1Cc1cc(-c2ccc(C#CC3CC3CN)cc2)on1 (stereo in doubt) [Compound 8, (1S)-1-(1-{[5-(4-{[trans-2-(aminomethyl)cyclopropyl]ethynyl}phenyl)-1,2-oxazol-3-yl]methyl}-1H-imidazol-2-yl)ethan-1-ol] | 67.8 | 30.5 | 16 (≈ 44.1 µM) | 64 (≈ 177 µM) | – | –
2 | C[C@H](O)c1nccn1Cc1cc(-c2ccc(C#CC34CC(N)(C3)C4)cc2)on1 [Compound 17, (1S)-1-{1-[(5-(4-[(3-aminobicyclo[1.1.1]pentan-1-yl)ethynyl]phenyl}-1,2-oxazol-3-yl)methyl]-1H-imidazol-2-yl}ethan-1-ol] | 49.1 | 13.8 | 16 (≈ 42.7 µM) | 0.5 (≈ 1.34 µM) | 0.5 (≈ 1.34 µM) | –
3 | C[C@H](O)c1nccn1[C@H](CN)c1cc(-c2ccc(C#CCCCO)cc2)on1 [Compound 18, 5-(4-{3-[(1R)-2-Amino-1-{2-[(1S)-1-hydroxyethyl]-1H-imidazol-1-yl}ethyl]-1,2-oxazol-5-yl}phenyl)pent-4-yn-1-ol] | – | 6.04 | 16 (≈ 42.1 µM) | 8 (≈ 21 µM) | – | 69.7
4 | C[C@H](O)c1nccn1[C@H](CN)c1cc(-c2ccc(C#C[C@H]3C[C@H](O)C3)cc2)on1 [Compound 70, trans-3-[(4-{3-[(1R)-2-Amino-1-{2-[(1S)-1-hydroxyethyl]-1H-imidazol-1-yl}ethyl]-1,2-oxazol-5-yl}phenyl)ethynyl]cyclobutan-1-ol] | < 37 | – | 4 (≈ 10.2 µM) | 1 (≈ 2.55 µM) | 0.25 (≈ 0.637 µM) | –
